Patent US20040152766A1, “Composition comprising demethylcantharidin in combination with platinum-containing anticancer agents and use thereof” (priority 2003, published 2004)
“And” between values parts separate entries of the source, which are not always exact repeats. Equal values may be shown once. Read-outs that look alike come from different tables or passages of the source.

How the values were obtained:
[1] = tested on: NTERA-S cl D1 human testicular cancer; test: In vitro antitumor-drug screening, MTT assay, NTERA-S cl D1; format: cell-based; conditions: n = 12-16 from 3-4 independent experiments, read-out: Growth-inhibitory activity IC50 ± sd
Protocol: (§1) Test complexes 1-5, DMC, hydrolyzed DMC, cantharidin, together with controls cisplatin and carboplatin, were screened for in vitro antitumor activity against a series of human cancer cell lines and mouse leukaemia L1210, using a tetrazolium microculture assay.
(§2) Drugs: Drugs to be tested were dissolved in complete medium at twice the highest concentration to be used, followed by filter (0.22 μm) sterilization. A series of log dilutions were made of each drug solution using complete medium. All drug solutions were prepared within 10 minutes before adding to the cells.
(§3) Cells: MDA-MB-231 (human breast), SK-OV-3 (human ovarian), SK-Hep-1 (human liver), COLO320DM (human colon), L1210 (mouse leukaemia), NCI:H460 (human lung) and NTERA-Scl-D1 (human testicular) were obtained from the American Type Culture Collection (ATCC).
(§4) The cultures were incubated for an additional 72 hours.
(§5) Data analysis: The mean OD for all 12 control wells was determined. For each concentration of each drug, the mean OD of the 4 wells was determined. All mean OD was subtracted from the blank to account for the background. The “Percent of Control” values were determined and plotted. The concentration of drug resulting in 50% growth inhibition (IC50) was determined using the software Prism 3.0 by fitting the graph into sigmoidal dose-response curve.

[2] = tested on: COLO320DM human colon cancer; test: In vitro antitumor-drug screening, MTT assay, COLO320DM; format: cell-based
Protocol: as §1, §2, §3, §4, §5

[3] = tested on: SK-Hep-1 human liver cancer; test: In vitro antitumor-drug screening, MTT assay, SK-Hep-1; format: cell-based
Protocol: as §1, §2, §3, §4, §5

[4] = tested on: SK-OV-3 human ovarian cancer; test: In vitro antitumor-drug screening, MTT assay, SK-OV-3; format: cell-based
Protocol: as §1, §2, §3, §4, §5

[5] = tested on: Cisplatin-resistant L1210 mouse leukaemia; conditions: for fold-resistant (cross-resistance): Dm in CDDP-resistant L1210 versus sensitive L1210
Protocol: (§6) In vitro drug exposure: Trypsinized cells were adjusted to a concentration of 2×10^5 cells/ml in complete medium and for each drug to be tested, 0.1 ml of the cell suspension was added to each of the 24 wells of a 96-well microtitre plate. The plate was then incubated at standard conditions for 24 hours in order to allow the cells to attach to the bottom of the well and resume exponential growth. To each well of the control cultures and drug/concentration combination, 0.1 ml of complete medium and drug solution respectively was added. Each drug/concentration combination consisted of 4 replicates while control cultures consisted of 12 replicates. 12 replicates of blank consisting of 0.2 ml complete medium were set aside to account for the background. The cultures were incubated for an additional 72 hours. All experiments were repeated at least 3 times on different occasions.
(§7) MTT assay: The MTT (tetrazolium) assay was used to determine the growth-inhibitory effects of different drugs. A 5 mg/ml solution of MTT (3-(4,5-dimethylthiazol-2-yl)-2,5-diphenyltetrazolium bromide) was prepared in phosphate buffer saline (pH 7.4), filter (0.22 μm) sterilized and stored at −20° C. To each well, 0.02 ml of the MTT solution was added and the plates were incubated at standard conditions for 4 hours. The media from each well was then removed and 0.1 ml of DMSO (dimethylsulfoxide) was added to each well to solubilize the colored dye produced from the metabolic reduction of MTT. The amount of reduced MTT was determined by spectrophotometric means (570 nm).
(§8) Platinum compounds were evaluated alone and in combination with demethylcantharidin (DMC) for their cytotoxic effects. The cytotoxicity for the compounds was determined by the MTT assay as described above. The median-effect principle and combination-index isobologram method of Chou and Talalay was used to determine the dose-effect parameters for cisplatin, DMC, or their mixtures at different combination ratios. Each drug or mixture was 3-fold serially diluted to generate a dose-effect relationship in the cytotoxic assays.
(§9) Combinations of cisplatin and DMC were evaluated for synergism, additive effect or antagonism using the median-effect plot and combination-index isobologram method of Chou and Talalay references 1-4.
This method involves plotting dose-effect curves for each agent and their combinations in multiply-diluted concentrations by using the median-effect equation [3,6]
where fa is the fraction of cells affected (ie, fraction of cells killed), fu the fraction unaffected (i.e. fraction of cells surviving; fa=1−fu), D the dose of drug and Dm the dose causing the median effect
The parameters m, Dm, and r are the slope, antilog of x-intercept, and the linear correlation coefficient of the median-effect plot, which signifies the shape of the dose-effect curve, the potency (IC50), and conformity of the data to the mass-action law, in references 3, 5 and 6, respectively. Dm and m values are used for calculating the combination index (CI) values.
CI<1, CI=1, and CI>1 indicate synergism, additivity, and antagonism, respectively. As based on the classic isobologram equation, CI can be calculated by equation:
CI=[(D)1/(Dx)1]+[(D)2/(Dx)2]+[α(D)1(D)2]/[(Dx)1(Dx)2),
Both the mutually non-exclusive and exclusive drug interaction as defined by Chou and Chou (reference 7) were evaluated.
To preclude a false-positive result, classical isobologram curve tracing was used to confirm the synergistic effect at a reasonable fractional cytotoxic effect (fa=50%).

[6] = tested on: MDA-MB-231 human breast cancer; test: In vitro antitumor-drug screening, MTT assay, MDA-MB-231; format: cell-based
Protocol: as §1, §2, §3, §4, §5

L1210 mouse leukaemia = test: In vitro antitumor-drug screening, tetrazolium (MTT) microculture assay, L1210; format: cell-based
Protocol: as §1, §2, §3, §4, §5

[7] = tested on: Sensitive parental L1210 mouse leukaemia; test: cells; format: cell-based; conditions: 72-hr exposure, fa = 50%
Protocol: as §6, §7, §8, §9
This method involves plotting dose-effect curves for each agent and their combinations in multiply-diluted concentrations by using the median-effect equation [3,6] […]
CI<1, CI=1, and CI>1 indicate synergism, additivity, and antagonism, respectively. As based on the classic isobologram equation, CI can be calculated by equation: […]
Both the mutually non-exclusive and exclusive drug interaction as defined by Chou and Chou (reference 7) were evaluated. […]

[8] = tested on: NCI: H460 human lung cancer; test: In vitro antitumor-drug screening, MTT assay, NCI:H460; format: cell-based; conditions: n = 12-16 from 3-4 independent experiments, read-out: Growth-inhibitory activity IC50 ± sd
Protocol: as §1, §2, §3, §4, §5

[9] = COLO320-DM human colon cancer, n = 12-16 from 3-4 independent experiments, read-out: Growth-inhibitory activity IC50 ± sd
[10] = SK-Hep-1 human liver cancer, n = 12-16 from 3-4 independent experiments, read-out: Growth-inhibitory activity IC50 ± sd
[11] = SK-OV-3 human ovarian cancer, n = 12-16 from 3-4 independent experiments, read-out: Growth-inhibitory activity IC50 ± sd
[12] = MDA-MB-231 human breast cancer, n = 12-16 from 3-4 independent experiments, read-out: Growth-inhibitory activity IC50 ± sd
[13] = L1210 mouse leukaemia, n = 12-16 from 3-4 independent experiments, read-out: Growth-inhibitory activity IC50 ± sd
[14] = sensitive parental L1210, read-out: Dm (i.e. IC50), antilog of x-intercept of the median-effect plot
[15] = Homo sapiens, COLO 320DM, COLO320DM, Table 1, read-out: In vitro antitumor activity IC50
[16] = Homo sapiens, SK-HEP1, SK-Hep-1, Table 1, read-out: In vitro antitumor activity IC50
[17] = Homo sapiens, SK-OV-3, Table 1, read-out: In vitro antitumor activity IC50
[18] = Homo sapiens, MDA-MB-231, Table 1, read-out: In vitro antitumor activity IC50
[19] = Mus musculus, L1210, Table 1, read-out: In vitro antitumor activity IC50

Structure (SMILES) | IC50 [1] [µM] | IC50 [2, 9] [µM] | IC50 [3, 10] [µM] | IC50 [4, 11] [µM] | fold-resistant (cross-resistance) [5] | IC50 [6, 12] [µM] | IC50 (L1210 mouse leukaemia; [13]) [µM] | IC50 [8] [µM] | also measured
N.N.O=C([O-])C1(C(=O)[O-])CCC1.[Pt+2] [Carboplatin, reference compound] | 2.75 ± 1.13 | 188 ± 35.8 | 501 ± 86.6 | 149 ± 34.1 | 14.5 fold | 1080 ± 157 | 10.1 ± 3.71 | 60.3 ± 16.4 | IC50 [5]: 154 µM; fold-resistant (cross-resistance) ([5]; listed as carboplatin): ~15 fold; IC50 [7, 14]: 10.6 µM
C[NH][Pt]1([NH]C)[O]C(=O)C2C3CCC(O3)C2C(=O)[O]1 (stereo not drawn) [Complex 3] | 0.84 ± 0.2 | 48.9 ± 10.5 | 15.4 ± 6.04 | 37.2 ± 13.4 |  | 49.4 ± 9.42 | 6.19 ± 2.67 | 3.44 ± 1.98 | 
CC(C)[NH][Pt]1([NH]C(C)C)[O]C(=O)C2C3CCC(O3)C2C(=O)[O]1 (stereo not drawn) [Complex 2] | 1.44 ± 0.41 | 84.7 ± 9.68 | 17.2 ± 8.07 | 77.7 ± 19.8 |  | 94.5 ± 9.61 | 12.1 ± 2.35 | 26.5 ± 8.09 | 
O=C(O)C1C2CCC(O2)C1C(=O)O (stereo not drawn) [Hydrolyzed DMC] |  |  |  |  |  |  |  |  | IC50 ([2]; COLO320DM, Table 1, read-out: In vitro antitumor activity IC50): 46.5 µM; IC50 ([3]; SK-Hep-1, Table 1, read-out: In vitro antitumor activity IC50): 7.2 µM; IC50 ([4]; SK-OV-3, Table 1, read-out: In vitro antitumor activity IC50): 46.6 µM; IC50 ([6]; MDA-MB-231, Table 1, read-out: In vitro antitumor activity IC50): 41.7 µM; IC50 (L1210 mouse leukaemia; L1210, Table 1, read-out: In vitro antitumor activity IC50): 8.33 µM
O=C1[O][Pt]2([NH]C3CCCCC3[NH]2)[O]C(=O)C2C3CCC(O3)C12 (stereo not drawn) [Complex 5] |  |  |  |  | negligible cross-resistance |  |  |  | 
N.N.[Cl][Pt][Cl] [Cisplatin, reference compound] | 0.19 ± 0.1 | 11.9 ± 1.5 | 54.1 ± 9.81 | 15.2 ± 11.8 | 40.8 fold | 65.7 ± 4.39 | 0.51 ± 0.11 | 11.3 ± 4.93 | IC50 [5]: 24.6 µM; DRI for cisplatin, resistant versus sensitive parental cell line ([5]; Cisplatin:DMC 1:1.67 (resistant) versus 1:1.49 (sensitive)): about 5.5 fold; fold-resistant (cross-resistance) ([5]; listed as cisplatin): 40 fold; IC50 [7, 14]: 0.603 µM
O=C1OC(=O)C2C3CCC(O3)C12 (stereo not drawn) [DMC, Demethylcantharidin] |  |  |  |  | 1.1 fold |  |  |  | IC50 [2, 15]: 19.3 µM; IC50 [3, 16]: 11.5 µM; IC50 [4, 17]: 53.8 µM; fold-resistant (cross-resistance) ([5]; listed as demethylcantharidin (DMC)): negligible cross-resistance; IC50 [6, 18]: 31.8 µM; IC50 (L1210 mouse leukaemia; [19]): 13.9 µM; IC50 ([7]; Mus musculus, L1210, 72 h, read-out: Dm (i.e. IC50), antilog of x-intercept of the median-effect plot, sensitive parental L1210): 11.2 µM
[NH2][Pt]1([NH2])[O]C(=O)C2C3CCC(O3)C2C(=O)[O]1 (stereo not drawn) [Complex 1] | 0.36 ± 0.25 | 37.2 ± 7.14 | 20.6 ± 5.89 | 40.8 ± 14.3 | 8 fold and 8.2 fold | 63.8 ± 8.28 | 2.71 ± 0.4 | 21.1 ± 10.7 | IC50 [5]: 42.4 µM; fold-resistant (cross-resistance) ([5]; listed as complex 1): different degree of cross-resistant; IC50 [7, 14]: 5.15 µM
C[C@@]12C(=O)OC(=O)[C@]1(C)[C@H]1CC[C@@H]2O1 [Cantharidin] |  |  |  |  |  |  |  |  | IC50 [2, 15]: 35.6 µM; IC50 [3, 16]: 3.34 µM; IC50 [4, 17]: 4.98 µM; IC50 [6, 18]: 10.6 µM; IC50 (L1210 mouse leukaemia; [19]): 38.9 µM
CC[NH][Pt]1([NH]CC)[O]C(=O)C2C3CCC(O3)C2C(=O)[O]1 (stereo not drawn) [Complex 4] | 0.6 ± 0.24 | 48.5 ± 9.95 | 20 ± 5.52 | 62.6 ± 33.5 |  | 62.5 ± 13.3 | 5.92 ± 1.94 | 3.91 ± 2.65 | 
O=C1[O][Pt]2([NH][C@@H]3CCCC[C@H]3[NH]2)[O]C1=O [Oxaliplatin] |  |  |  |  | different degree of cross-resistant |  |  |  | 
